Assay results: US11021628B2, “Coating composition containing methyl cellulose, method for producing the same, and solid preparation” (Shin-Etsu Chemical Co., Ltd., priority 2016, dated 2021)

Assay: Dissolution Test, Paddle method, Japanese Pharmacopoeia Sixteenth Edition
Format: physicochemical
Conditions: acetaminophen, water, paddle 100 rpm
Protocol: The coated granules was subjected to the dissolution test in accordance with Dissolution Test, Paddle method in the Japanese Pharmacopoeia Sixteenth Edition at a paddle rotation rate of 100 rpm with water as the test liquid, and the drug concentration was quantitatively determined at a measurement wavelength of 244 nm by using an ultraviolet spectrophotometer (UV-1700, manufactured by Shimadzu Corporation).
As Reference Example 1, the dissolution rates of an acetaminophen powder after 1 minute and 10 minutes are also shown in Table 3.

dissolution ratio after 1 minute (1 minute): 48.0% | dissolution ratio after 10 minutes (10 minutes): 99.6%
Structure (SMILES): CC(=O)Nc1ccc(O)cc1 [Ref. Ex. 1, acetaminophen]
